Laboratory results taken from patent US20140328882A1, “WHEAT GERM EXTRACT OBTAINED BY PROTEASE HYDROLYSIS AND MEDICAL USE THEREOF” (BIROPHARMA UK LTD, priority 2011, published 2014).

System: colon inflammation induced by 2,4,6 TNBS
Test: Colon-inflammatory model induced by 2,4,6 TNBS in rats
Format: in vivo, Wistar (CD) male rats
Conditions: PABD 2 g/kg/day p.o., infliximab 3.0 mg/kg/day, SASP 50 mg/kg/day; for Body weight change (body weight relative to 100% before TNBS): 2,4,6 TNBS 10 mg/rat into colon, evaluated third day, TNBS alone 91.8%; for Seriousness of inflammation (0-11 scale) / Extension of mucous membrane lesions / TNF-α level: 2,4,6 TNBS 10 mg/rat, third day; for Seriousness of inflammation (0-11 scale): TNBS alone 7.6; for Extension of mucous membrane lesions: TNBS alone 60.2%; for TNF-α level: control 12.7, TNBS alone 420.4
Source text: Examination of Anti-Inflammatory Effect in Colon-Inflammatory Model Induced by TNBS in the Case of Rats.
The 2,4,6 Trinitrobenzene-sulphonic-acid (2,4,6 TNBS) induction method represents well the pathological changes typical of patients suffering e.g. from Crohn's disease, so this model is well known and accepted in IBD-studies. The method described in Morris G. P. et al. “Hapten-induced model of chronic inflammation and ulceration in the rat colon” Gastroenterology 1989., 96(3); 795-803 was followed.
Examinations were made in Wistar (CD) male rats. Nr: 10-10/groups.
PABD powder was produced as described in Example 2; DH % of it's protein fraction was 20%.
2,4,6 TNBS=2,4,6 Trinitrobenzene-sulphonic-acid in solution.
During the method 2,4,6 TNBS (10 mg/rat) was introduced after 12 hours starving in aether-anaesthesia into the colon. Inflammation reach the maximum on the third day. The animals were sacrificed by cervalis dislocation and the results were evaluated.

| Compound | Body weight change (body weight relative to 100% before TNBS) [%] | Seriousness of inflammation (0-11 scale) | Extension of mucous membrane lesions [%] | TNF-α level [pg/mg protein] |
| --- | --- | --- | --- | --- |
| Infliximab: biologically active agent used in the treatment of IBD; comparator treatment | 100.0 | 5.4 | 36.4 | 212.0 |
| O=C(O)c1cc(/N=N/c2ccc(S(=O)(=O)Nc3ccccn3)cc2)ccc1O [SASP, Sulfasalazine] | 100.8 | 5.8 | 39.7 | 236.1 |
